# Laboratory results as given in patent US20090068143A1, “ORALLY EFFECTIVE C[…]” (priority 2005, published 2009).
# Where two headings read alike, the source gives them in different places.
# How the values were obtained:
# [1] = tested on: chronic constriction induced neuropathic pain; assay: Chronic constriction induced neuropathic pain (Von Frey filaments); format: in vivo, Sprague-Dawley rats
# From the text: A peripheral monopathy was induced in the right hind limb of rats following a chronic constriction of the sciatic nerve according to Bennet et al. [Bennet, G. J. & Xie, Y-K., Pain 33: 87-107, 1988]. The development of mechanical allodyna was monitored using an established behavioral test (Von Frey filaments).
# Pre-surgery baseline values were ascertained as the mean of 2 pre-surgery values. Once the baseline values had been established, the animals were surgically prepared by constricting the right sciatic nerve with 4 chromic cat gut loose ligatures. On day 11 post-operation, the animals that have developed mechanical allodyna were arbitrarily allocated to the various treatment groups based on the pre-surgery values.
# The design was randomized, performed in a masked fashion as to whether drug or vehicle is being given. The animals, male Sprague-Dawley rats (average body weight 240-290 g, Harlan, Israel), were allowed to acclimatize to the behavioral testing equipment prior to testing. […] The filaments were applied in ascending order starting with the weakest force and the withdrawal threshold for both the ipsilateral and contralateral hind paws was evaluated. […] The withdrawal threshold is defined as being the lowest force of two or more consecutive Von Frey's filaments to elicit a reflex withdrawal response (i.e. a brief paw flick) and is measured in grams.
# F4/80 = assay: Real-time RT-PCR gene expression in CNS of MOG induced EAE: F4/80; format: in vivo, mouse; conditions: 40 mg/kg p.o., day 31; over naive animals
# Method: Total RNA is prepared using SV total RNA isolation system (Promega). The brains and spinal cords, which were removed on day 31 from five animals treated with vehicle (i.e. untreated) or 40 mg/kg p.o. of compound 18F (i.e. treated) in the MOG-induced EAE study, were homogenized in lysis buffer. The lysates were transferred to an RNA isolation column, treated with DNAse, washed and eluted according to kit instructions. RNA concentrations were determined using GeneQuant II (Pharmacia-Amersham). Complementary DNA (cDNA) was synthesized from total RNA using […] II reverse transcriptase (Life Technologies). […] Quantitative real-time RT-PCR included 1 μl of the cDNA, 300 nM of the appropriate forward and reverse primers (according to the gene monitored) and 7.5 μl of the reaction mix containing buffer, nucleotides, Taq polymerase and SYBER green (SYBER Green master mix, Applied Biosystems), in a total reaction volume of 15 μl. […] During each annealing step, the amount of the amplified product was measured by the fluorescence of the double strand DNA binding dye, SYBER Green. The cycle of threshold (CT), representing the PCR cycle at which an increase in fluorescence above a baseline signal can be first detected, was determined for each product. […] Results were expressed as fold increase of gene expression in treated or untreated animals above the naive animals. […]
# acute pain = conditions: pretreatment, administered orally; cited from earlier work
# [2] = Actual solubility in aqueous buffers / cosolvent (HPLC, spectrophotometer); format: physicochemical; conditions: for solubility: thermodynamic from solid
# Method: The actual solubility of certain compounds of the invention was assessed in aqueous buffers and final concentration of compounds was determined using HPLC and spectrophotometer methodologies. […] Therefore, compounds that were designed following the same rational yielded unexpectedly divergent outcome, for instance in connection with solubility in aqueous solutions.
# It should be noted that following lyophilization compound 18F could be dissolved in 80 mM phosphate buffer at pH 6.9 even more efficiently at concentrations up to 60 mg/ml, about two order of magnitudes higher than expected.
# Approximately 11 g of compound 18F were lyophilized in one lyophilization cycle. A cosolvent mixture comprising 38.6% w/v of compound 18F was divided into several dishes to fit the lyophilization chamber. As a result of lyophilization, a dry product with improved physical properties such as flowability and less stickiness was obtained.
compound,measurement,setting,value
"CCCCCCC(C)(C)c1cc(O)c([C@H]2CC(=O)C3CC2C3(C)C)c(OC(=O)/C=C/C(=O)O)c1 (single isomer, unassigned; (-)) [Compound 18F, (−)-4-{4-[1,1-Dimethylheptyl]-2-fumarate-6-hydroxy-phenyl}-6,6-dimethyl-bicyclo[3.1.1]heptan-2-one]",effect on neuropathic pain,[1]; 20 mg/kg p.o.,little effect
same,effect on neuropathic pain,[1]; 40 mg/kg p.o.,as strong as 5 mg/kg morphine administered subcutaneously
same,"Fold gene expression F4/80, Brain, Treated",F4/80,1.5 fold
same,"Fold gene expression F4/80, Spinal Cord, Treated",F4/80,5.5 fold
same,efficacy against acute pain,acute pain,effective against acute pain
same,solubility,"[2]; 80 mM phosphate buffer, aqueous buffer, 80 mM phosphate buffer, read-out: solubility of non-lyophilized material",~10 mg/mL
same,solubility,"[2]; 80 mM phosphate buffer, pH 6.9, aqueous buffer, lyophilized, 80 mM phosphate buffer, pH 6.9, read-out: solubility following lyophilization",≤ 60 mg/mL
same,solubility,"[2]; 80 mM phosphate buffer, pH 7.8, aqueous buffer, 80 mM phosphate buffer, pH 7.8, read-out: actual solubility",≤ 12 mg/mL
same,actual solubility higher than expected,"[2]; 80 mM phosphate buffer, pH 7.8 vs calculated",about 20 fold
same,dissolution in organic cosolvent solution,[2]; tert.butanol and water 62.5:32.5 (v/v),up to 80 mg/ml
